# According to patent US20120258482A1, “PCNA […]” (INDIANA UNIVERSITY RESEARCH AND TECHNOLOGY CORPORATION, priority 2009, published 2012):
# What was measured:
# Type in all cases: cell-based, human
# [1] = tested on: PCNA isoform in MCF7 cells (p53 wild-type); test: 2D-PAGE anti-PCNA immunoblot after DOX exposure, MCF7; details: high-dose (5 μM) DOX
# Experimental: (§1) FIG. 7A is a Western blot analysis of p53 wild-type (MCF7) and p53-mutant (MDA-MB-468) breast carcinoma cell lines exposed to 5 μM DOX for the indicated times. Cell extracts (200 μg) were resolved by 2D-PAGE and immunoblotted with anti-PCNA antibodies. In FIG. 7B extracts from MCF7 cells (50 μg) treated with 5 μM DOX were separated by 12% SDS-PAGE and immunoblotted with anti-p21WAF1 antibodies. FIG. 7C is a Western blot analysis of glutathione-immobilized GST-p21 and GST-PIP (a.a. 139-160) fusion proteins incubated with untreated MCF7 cell extracts for 2 h at 4° C. and the pull-down fractions were resolved by 2D-PAGE and Western blotted for PCNA. PCNA isoforms were isolated from MCF7 extracts by incubation with PIP-affinity beads for ˜2 h and analyzed by 2D-PAGE using pH 4-7 IPG strips. Colloidal Coomassie stained spots (See FIG. 7D) were excised from the gel, trypsin digested, and sequenced by LC-MS/MS.
# (§2) 2D-PAGE and mass spectrometry. Isoelectric focusing was performed using IPG strips and an IEF cell (BioRad) as previously described (Hoelz, D. J. et al. Proteomics 6, 4808-4816, 2006). […] Anti-PCNA (PC10) antibodies were obtained from Santa Cruz Biotech and anti-WAF1 (DF10) were from EMD Biosciences.
# (§3) Although the description of Arm1 identifies a novel posttranslational mechanism in eukaryotic cells, its biological significance was still unclear. […]
# [2] = tested on: PCNA isoform in MDA MB468 cells (p53-mutant); test: 2D-PAGE anti-PCNA immunoblot after DOX exposure, MDA MB468; details: 5 μM DOX
# Experimental: as §1, §2, §3
# [3] = tested on: p21WAF1/CIP1 in MCF7 cells; test: Immunoblot with anti-p21WAF1 antibodies after DOX treatment; details: 5 μM DOX, 4 h after treatment
structure (smiles),measurement,setting,value
"COc1cccc2c1C(=O)c1c(O)c3c(c(O)c1C2=O)C[C@@](O)(C(=O)CO)C[C@@H]3O[C@H]1C[C@H](N)[C@H](O)[C@H](C)O1 [DOX, doxorubicin]","basic-shifted (methyl esterified) PCNA isoform, pI ~5.6",[1],induced
same,basic-shifted (methyl esterified) PCNA isoform,[2],unable to identify the isoform
same,induction of p21 expression,[3],over 27 fold
